Measurements as given in US20070087988A1, “Hematopoietic progenitor kinase 1 for modulation of an immune response” (New York University, priority 2005, published 2007).

What was measured:
[1] = system: T cells; test: Mixed leukocyte reaction (MLR) T cell proliferation, 3H-thymidine; assay type: cell-based, mouse; conditions: MLR with LPS-matured BMDCs, addition of PGE2
Method: MLR was performed as described in Sallusto et al. (1994, J. Exp. Med. 179:1009-1118) with minor modifications. Naïve T cells from an allogeneic SJL mouse were purified using CD62L magnetic beads (Milentyi Biotech, Inc., CA). In a 96-well round bottom plate, T cells (1×10^5) were used as responders and incubated with HPK1^−/− and wild type, immature or LPS-matured bone marrow derived dendritic cells (BMDCs) as stimulators. Naïve T cells plus 10 μg/ml ConA were used as a positive control.
In these experiments, T cells were purified and subjected to a mixed leukocyte reaction (MLR) with wild type allogeneic BMDCs in the presence or absence of PGE2. […] To assess this, the same study was repeated under conditions where the magnitude of the MLR response was similar in the two cell types by manipulating the T cell to DC ratio. […] Similar resistance to PGE2 was observed when HPK1^−/− T cells were stimulated by T cell receptor activation with anti-CD3- and anti-CD28-mediated crosslinking in the presence of PGE2 (FIG. 20B).

[2] = target: T1, EP2 receptor (Homo sapiens, UniProt P43116); test: IVK assay of HA-HPK1 from 293-EP2 transfectants; assay type: cell-based; conditions: PGE2 stimulation
T1 construct: expressed in transfected cells; host or cells: HEK 293 (293-EP2), also transiently transfected with HA-HPK1
T1 sequence (P43116 whole entry): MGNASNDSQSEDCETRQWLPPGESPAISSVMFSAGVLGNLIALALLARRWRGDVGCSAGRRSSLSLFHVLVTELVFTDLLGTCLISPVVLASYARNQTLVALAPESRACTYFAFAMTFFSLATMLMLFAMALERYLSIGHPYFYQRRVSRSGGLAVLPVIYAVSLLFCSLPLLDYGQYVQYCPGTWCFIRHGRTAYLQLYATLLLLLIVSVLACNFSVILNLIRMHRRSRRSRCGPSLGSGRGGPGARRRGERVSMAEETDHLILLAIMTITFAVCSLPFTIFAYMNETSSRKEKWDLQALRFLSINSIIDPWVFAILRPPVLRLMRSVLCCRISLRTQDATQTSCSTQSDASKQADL

[3] = system: HPK1; test: HPK1 immune complex in vitro kinase (IVK) assay, endogenous HPK1 from treated Jurkat cells; assay type: cell-based, human; conditions: Jurkat cells, 10 pM PGE2
[4] = target: EP4 receptor (Homo sapiens, UniProt P35408); test: IVK assay of HA-HPK1 from 293-EP4 transfectants; conditions: PGE2 stimulation
Chain of EP4 receptor (P35408 whole entry): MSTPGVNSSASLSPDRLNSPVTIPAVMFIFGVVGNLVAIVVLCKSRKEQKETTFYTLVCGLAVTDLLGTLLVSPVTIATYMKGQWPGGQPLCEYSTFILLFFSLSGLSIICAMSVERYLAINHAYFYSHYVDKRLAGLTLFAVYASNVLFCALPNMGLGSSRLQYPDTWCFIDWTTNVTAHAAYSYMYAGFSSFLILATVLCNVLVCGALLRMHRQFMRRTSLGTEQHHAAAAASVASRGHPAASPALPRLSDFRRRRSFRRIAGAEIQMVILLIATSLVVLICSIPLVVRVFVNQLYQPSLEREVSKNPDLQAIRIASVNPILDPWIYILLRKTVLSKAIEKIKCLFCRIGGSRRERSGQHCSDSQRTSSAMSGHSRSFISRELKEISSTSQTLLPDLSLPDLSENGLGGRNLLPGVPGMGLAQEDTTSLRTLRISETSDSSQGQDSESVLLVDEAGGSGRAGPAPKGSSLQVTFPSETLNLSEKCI

[5] = system: CD4+ T cells; test: Intracellular IL-2 staining of CD4+ T cells (FACS); assay type: cell-based, mouse
Method: Purified naïve wild type and HPK1^−/− splenocytes were expanded with 10 μg/ml ConA for three days with or without 10 nM PGE2. 10^6 cells were seeded onto a 96-well plate and cells were either left unstimulated or were stimulated with 1 μg/ml anti-CD3 and anti-CD28 for 6 hours in the presence of GolgiStop™ (BD Pharmingen). Cells were washed with buffer containing 0.1% saponin and 0.1% BSA followed by incubation with anti-IL-2-PE for 30 min. IL-2 levels were read by flow cytometry using FACSCalibur™.
RBC-lysed wild type and HPK1^−/− splenocytes were stimulated with or without 1 nM PGE2 and 2 μg/ml anti-CD3 plus 1 μg/ml anti-CD28 for 48 hours in the presence of GolgiStop™ (BD Pharmingen) for the last five hours of culture. For profiling experiments, RBC-lysed splenocytes were stimulated with anti-CD3 and anti-CD28 for 24 hours, and GolgiStop was added in the last five hours. Cells were then fixed with 2% paraformaldehyde followed by permeabilization with a buffer containing 0.1% saponin and 0.1% BSA and the different conjugated antibodies for 30 min. Cytokine levels were read by flow cytometry using FACSCalibur™ and analyzed using Flowjo software.

[6] = system: HPK1; test: HPK1 IVK assay in primary splenocytes / T lymphocytes; assay type: cell-based, mouse; conditions: primary T lymphocytes (C57BL/6 splenocytes), 10 nM PGE2, 5 min
Method: Splenocytes from wild type C57BL/6 were harvested, lysed with RBC lysis buffer (Sigma) and stimulated with 1 μg/ml plate bound anti-CD3 and anti-CD28 or 10 nM PGE2 alone (Calbiochem) for 5 min. at 37° C. Whole cell lysates were subjected to immunoprecipitation with anti-HPK1 antibodies #5 and #6, then subjected to IVK as described in Kiefer et al. (1996, EMBO J. 15:7013-7025). Anti-HPK1 antibody #2 was used as a blotting antibody.
Splenocytes from wild type C57BL/6 were harvested, lysed with RBC lysis buffer (Sigma) and stimulated with 1 μg/ml plate bound anti-CD3 and 1 μg/ml soluble anti-CD28 or with 10 nM PGE2 (Calbiochem) for 5 min. at 37° C. Whole cell lysates were subjected to immunoprecipitation with anti-HPK1 antibodies #5 and #6 and then subjected to IVK as described (1). Anti-HPK1 antibody #2 was used as a blotting antibody.

[7] = system: T cells; test: T cell proliferation on anti-CD3/anti-CD28 TCR crosslinking, 3H-thymidine; assay type: cell-based, mouse
Method: Naïve T cells (2×10^5) were seeded onto a 96-well plate and incubated with 1 μg/ml anti-CD3 and anti-CD28 or 10 μg/ml ConA for three days in the presence or absence of 100 pM PGE2 and then pulsed with 1 μCi/well ^3H thymidine (MP Biomedicals, Irvine, Calif.) for 18 hours before harvesting.
T cells were negatively selected using the Pan T cell isolation kit (Miltenyi Biotech Inc., Auburn, Calif.). […] 2×10^5 Naïve T cells were seeded on a 96-well plate and incubated with various dilutions of anti-CD3 and 1 μg/ml of anti-CD28 for 72 hours in the presence or absence of 1 nM PGE2 and then pulsed with 1 μCi/well ^3H thymidine (MP Biomedicals, Irvine, Calif.) for 18 hours before harvest.

[8] = system: wild type HEK 293-EBNA cell line; test: IVK assay of HA-HPK1 from wild type HEK 293-EBNA cells (no EP2/EP4); assay type: cell-based, human; conditions: absence of EP2 and EP4 receptor, PGE2 stimulation
[9] = Example 4, 10 nM PGE2, restimulated anti-CD3/anti-CD28
[10] = Example 4, 100 pM PGE2, three days

SMILES: CCCCC[C@H](O)/C=C/[C@H]1[C@H](O)CC(=O)[C@@H]1C/C=C\CCCC(=O)O [PGE2, prostaglandin E2]
- inhibition of proliferation, HPK1−/− T cells, MLR [1]: ~25%
- inhibition of proliferation, wild type T cells, MLR [1]: ~90%
- HPK1 kinase activity (IVK), 293-EP2 transfectants [2]: responded robustly
- HPK1 catalytic activity (IVK) [3]: activate the catalytic activity of HPK1
- HPK1 kinase activity (IVK), 293-EP4 transfectants [4]: responded robustly
- CD4+ HPK1−/− cells still producing IL-2 after PGE2 addition [5, 9]: over 45%
- wild type cells producing IL-2 after PGE2 addition [5, 9]: less than 10%
- CD4+ HPK1−/− T cells still producing IL-2 after co-culture with PGE2 ([5]; Example 7, 1 nM PGE2, 48 hours): over 22%
- wild type cells producing IL-2 after co-culture with PGE2 ([5]; Example 7, 1 nM PGE2, 48 hours): < 5%
- increase in HPK1 kinase activity [6]: three-fold
- inhibition of proliferation, HPK1−/− T cells, anti-CD3/anti-CD28 [7, 10]: 18%
- inhibition of proliferation, wild type T cells, anti-CD3/anti-CD28 [7, 10]: ~80%
- inhibition of proliferation, HPK1−/− T cells, TCR cross-linking ([7]; Example 8, 1 nM PGE2, 72 hours): ~20%
- inhibition of proliferation, wild type T cells, TCR cross-linking ([7]; Example 8, 1 nM PGE2, 72 hours): ~80%
- HPK1 kinase activity (IVK), wild type HEK 293-EBNA [8]: failed to respond
